Paper PMC3545969, “Mutagenicity and antimutagenicity of (−)-hinokinin a trypanosomicidal compound measured by Salmonella microsome and comet assays” (BMC Complementary and Alternative Medicine, 2012)
Read-outs that look alike come from different tables or passages of the source. Marks after values point to notes of the source that are not given here.

What was measured:
V79 cells = test: Comet assay, genotoxicity in V79 cells; assay type: cell-based, Chinese hamster; design: Class 0 / Class 1 / Class 2 / Class 3: unit not given here; conditions: for Class 0 / Class 1 / Class 2 / Class 3 / Score: 3 h
Protocol: Chinese hamster lung fibroblasts (V79) were kindly supplied by Professor Cólus (Universidade Estadual de Londrina (UEL), Paraná, Brazil). Cells were maintained as monolayers in plastic culture flasks (25 cm^2) in HAM-F10 (Sigma-Aldrich) plus DMEM (Sigma-Aldrich, 1:1) culture medium supplemented with 10%; fetal bovine serum (Nutricell), antibiotics (0.01 mg mL^−1 streptomycin and 0.005 mg mL^−1 penicillin; Sigma-Aldrich) and 2.38 mg mL^−1 Hepes (Sigma-Aldrich), at 37°C in a BOD-type chamber. Under these conditions, the average cell cycle time was 12 h.
HK was first dissolved in a mixture of methanol (100 μL) and distilled water (900 μL). The final concentration of methanol in the culture was 0.1%;. The choice of concentrations was based on the results of previous experiments with HK [12]. In the experiments, 3 × 10^5 cells (V79) were seeded into tissue-culture flasks, incubated for two cycles (24 h) in complete HAM-F10/DMEM medium, washed with phosphate buffer saline (PBS), and then subjected to one of the following treatments, in serum-free medium, for 3 h. To assess genotoxicity, the cells were treated with each concentration of HK alone, while for antigenotoxicity, they were treated with the mutagen DXR (0.3 μM) in combination with each HK concentration. Positive (DXR) and negative controls were also included in the test. At the end of the treatment, the cells were washed with ice-cold PBS and trypsinized with 200 μL trypsin. After 3 min, the cells were gently resuspended in complete medium and 20 μL of the cell suspension was immediately used for the test.
The procedures described by Singh et al. were adopted, with minor modifications, as described in detail by Speit and Hartmann and reviewed by Burlinson et al.. Briefly, a microscope slide was covered with a base layer of 1.5%; normal-melting agarose (Invitrogen) and 20 μL of the test cells suspended in 120 μL 0.5%; low-melting agarose (Invitrogen) at 37°C was then spread over the base layer. A coverslip was added and the agarose allowed to solidify at 4°C for 15 min. Next, the coverslip was gently removed and the slides were immersed in freshly prepared lysing solution consisting of 89 mL stock solution (2.5 M NaCl, 100 mM EDTA, 10 mM Tris, pH 10.0, and 1%; sodium lauryl sarcosine), 10 mL DMSO and 1 mL Triton X-100, pH 10.0, at 4°C, for at least 20 h, protected from light. At the end of this period, the slides were transferred to an electrophoresis chamber containing a high pH (>13.0) buffer (300 mM NaOH, 1 mM EDTA) and incubated at 4°C for 20 min to allow the DNA to unwind. A current of 25 V (1.0 V cm^−1, 300 mA) was applied for 20 min. The slides were then submerged in a neutralization buffer (0.4 M Tris - HCl, pH 7.5) for 15 min, dried at room temperature and fixed in 100%; ethanol for 10 min.
The slides were stained with 100 μL ethidium bromide (20 μg ml^−1) and covered with a coverslip. All the slides in the experiment were coded before analysis. The stained nucleoids were immediately evaluated at 1000x magnification under a Nikon fluorescence microscope fitted with a 515–560 nm excitation filter and a 590 nm barrier filter.
For each treatment, the extent and distribution of DNA damage indicated by the comet assay were evaluated by examining 100 randomly selected and non-overlapping cells on the slides (i.e. 300 nucleoids per treatment). For each slide, the cells were visually scored and allocated to one of four classes (0, 1, 2 and 3), according to tail size, as follows: class 0, undamaged, no tail; class 1, a short tail whose length was smaller than the diameter of the comet head (nucleus); class 2, tail length between 1 and 2 times the diameter of the head; and class 3, maximally damaged: a long tail measuring more than twice the diameter of the head. The few comets containing no head and those with almost all DNA in the tail, or with a very wide tail, were excluded from the analysis since they may arise from dead cells. […]

[1] = tested on: Salmonella typhimurium TA97a; conditions: TA 97a, + S9, mutagen alone (Ctrol +), 2-AA 1.25 μg/plate
[2] = tested on: Salmonella typhimurium TA100
[3] = tested on: Salmonella typhimurium TA97a; conditions: TA 97a, + S9, positive control 2-anthramine 1.25 μg/plate
[4] = tested on: Salmonella typhimurium TA98; conditions: TA 98, + S9, positive control 2-anthramine 1.25 μg/plate
[5] = tested on: Salmonella typhimurium TA100; remark: listed apart in the source
[6] = DXR 0.3 μM alone (positive control)

For `COc1cccc2c1C(=O)c1c(O)c3c(c(O)c1C2=O)C[C@@](O)(C(=O)CO)C[C@@H]3O[C@H]1C[C@H](N)[C@H](O)[C@H](C)O1` [DXR, doxorubicin, reference compound], the “Class 0” value (V79 cells; DXR 0.3 μM + MeOH 0.1%) was 46.3 ± 6.8, the “Class 1” value (V79 cells; DXR 0.3 μM + MeOH 0.1%) was 30.0 ± 6.0 and the “Class 2” value (V79 cells; DXR 0.3 μM + MeOH 0.1%) was 16.3 ± 5.6. The “Class 3” value (V79 cells; DXR 0.3 μM + MeOH 0.1%) was 6.6 ± 3.0, the Score (V79 cells; DXR 0.3 μM + MeOH 0.1%) was 83.3 ± 14.5^a and the “Class 0” value (V79 cells; [6]) was 41.0 ± 12.0. The “Class 1” value (V79 cells; [6]) was 36.0 ± 12.7, the “Class 2” value (V79 cells; [6]) was 18.0 ± 2.0 and the “Class 3” value (V79 cells; [6]) was 4.0 ± 2.5. For the same compound, the Score (V79 cells; [6]) was 86.0 ± 11.5^a and the “rate of DNA damage relative to the negative control” value (V79 cells; DXR 0.3 μM, V79 cells) was “significant increase in the rate of DNA damage”.
For `Nc1ccc2cc3ccccc3cc2c1` [2-AA, 2-aminoanthracene, reference compound], the “Number of revertants(M ± SD)/ plate” value [1] was 1083 + 67 revertants/plate, the “Number of revertants(M ± SD)/ plate” value ([2]; TA 100, + S9, positive control 2-anthramine 1.25 μg/plate) was 1456 ± 78^e revertants/plate and the “Number of revertants(M ± SD)/ plate” value [3] was 1789 ± 89^e revertants/plate. The “Number of revertants(M ± SD)/ plate” value [4] was 1567 ± 115^e revertants/plate.
For aflatoxin B1 [AFB1, reference compound], the “Number of revertants(M ± SD)/ plate” value [5] was 1607 + 79 revertants/plate.
`[N-]=[N+]=[N-].[Na+]` [SA, sodium azide, reference compound] was tested, and the “Number of revertants(M ± SD)/ plate” value [5] was 1219 + 46 revertants/plate and the “Number of revertants(M ± SD)/ plate” value [2] was 1582 ± 98^c revertants/plate.
